Patent publication US20060167026A1, “Antipsychotic molecular-targeting epithelial growth factor receptor” (Hiroyuki Nawa, priority 2003, published 2006)

Columns and labels:
[1] = test system: rats to which EGF was administered as neonates (model for cognitive dysfunction); assay: prepulse inhibition of acoustic startle in rats to which EGF was administered as neonates; assay type: in vivo, rat
Method: Newborn Sprague-Dawley (SD) rats were purchased from SLC (Shizuoka, Japan). Recombinant human EGF (Higeta-Syoyu Co, Chiba Japan) and cytochrome c (Sigma Chemical Co; control) were dissolved in physiologic saline. These agents were administered subcutaneously to rat pups on postnatal days 2, 4, 6, 8, and 10 at the nape of the neck at a dose of 1.75 μg of 1 g body weight).
Acoustic startle amplitudes and PPI responses were measured in a startle reaction chamber for small animals (SR-Lab Systems, San Diego Instruments, San Diego, Calif.) from postnatal week 3. Acoustic startle was induced with acoustic stimuli (120 dB), in combination with three different prepulse intensities of 5-, 10-, and 15-dB-above background noise (75, 80, 85 dB). The 120 dB pulse was followed 100 ms after one of the prepulses was given. Each rat was placed in the startle chamber and initially acclimatized for 5 min with background noise alone. Prepulse inhibition (PPI) of a startle response was calculated as: 100−[(startle response on prepulse pulse stimulus trials−no stimulus trials)/(pulse alone trials−no stimulus trials)×100].
SD rats treated with EGF or cytochrome c (control) were tested on postnatal days 56-66. […] The same concentration of DMSO solution was used as a control.
After anesthesia, a 28 gauge cannula was inserted into the site of rat skull (0.3 mm anterior and 1.2 mm right lateral measured from the bregma, 4.5 mm below the skull) and glued to the skull with dental cement. The end of cannula was connected to an osmotic minipump (250 μl, effective for 14 days model 2002; Azla Corp.) via vinyl tubing. Pumps were implanted subcutaneously in the nape of the neck. […] The scalp incision was closed with surgical suture and staples, and rats were maintained to wait recovery from the operation.
Seven days after administration, prepulse inhibition of the rats was monitored with 85 dB prepulse intensity using the acoustic startle measurement chamber for small animals (SR-Lab Systems, San Diego Instruments, San Diego, Calif.).

[2] = test system: rat model for cognitive dysfunction (EGF administered to neonatal rats); assay: latent inhibition in two-way active avoidance, neonatally EGF-treated rat model; assay type: in vivo
Method: The rat model for cognitive/behavioral dysfunction was prepared as EGF was administered to neonatal rats as described in the method of Experiment 1. SD rats were subjected to the two-way active avoidance task in an automated shuttle box (Muromachi-kiki, Tokyo, Japan) on postnatal weeks 6-8. The conditioned stimulus (CS) was an 80-dB tone and house light on and off. Rats learned the following task: When the CS was on, the animals had to cross to the other side of the shuttle box apparatus (avoidance response) in order to turn the CS off and avoid the appearance of the unconditioned stimulus (US). […] Rats were given 6 sessions of two-way active-avoidance conditioning (10 trials per session)(total 60 trials). Active-avoidance learning was evaluated by scoring the number of avoidance rate to CS.
Before this learning test was conducted, the CS of an 80-dB tone and house light had been given to normal rats without delivering US (pre-conditioning), following avoidance learning was impaired in these rats (FIG. 5 top; open circle). This is latent inhibition that represents the effect of the pre-exposure of a conditioned stimulus (CS, e.g. tone), preventing the learning of unconditioned stimulus (Russig H et al. Neuropsychopharmacology 26: p 765-777 (2002)).
When the rat model for cognitive/behavioral dysfunction, which is described in the Experiment 1, was exposed to the pre-conditioning. […] Such persistency can be inducible with hallucinogens such as cocaine (Murphy, C. A. et al. Behav Pharmacol. 12:p 13-23 (2001)).

SMILES: COc1cc2ncnc(Nc3ccc(F)c(Cl)c3)c2cc1OCCCN1CCOCC1 [Compound B, 4-(3-chloro4-fluoroanilino)-7-methoxy-6-(3-morphorinopropoxy) quianozoline]
- difference in prepulse inhibition between treated model rats and control animals ([1]; EGF model rats, intraventricular minipump 1 mg/ml, day 7, 85 dB prepulse): no significant differences
- effect on abnormal decrease in prepulse inhibition ([1]; EGF model rats, intraventricular osmotic minipump 1 mg/ml, seven days after administration, 85 dB prepulse, compared to solvent-injected group): significantly ameliorated the abnormal decrease in prepulse inhibition
- effect on prepulse inhibition in normal control rats ([1]; normal control rats, intraventricular minipump 1 mg/ml, day 7, 85 dB prepulse): had no effects in prepulse inhibition
- learning ability of treated model rats relative to normal controls ([2]; EGF model rats, pre-conditioned, two-way active avoidance): indistinguishable from that of normal controls
- effect on abnormal increase in latent inhibition ([2]; EGF model rats, pre-conditioned, two-way active avoidance, intraventricular minipump): significantly exert an ameliorative effect on abnormal increase in latent inhibition
- learning ability in conditioned avoidance learning ([2]; both normal control rats and model rats, after administration): exhibited better learning ability
